Measurements taken from patent US10940216B2, “Cyclic peptides with enhanced nerve-binding selectively, nanoparticles bound with said cyclic peptides, and use of same for real-time in vivo nerve tissue imaging” (Memorial Sloan Kettering Cancer Center, priority 2014, dated 2021).
Ends that are not written are not given here.

Key:
[1] = Characterization of NBP-Cy5 conjugates and linear NBP-C′ dots by fluorescence correlation spectroscopy (FCS); format: physicochemical
Protocol: Similarly, cyclic peptide(s) can be bound to nanoparticles for improved quantum enhancement and FCS brightness over the non-bound cyclic peptide.
Measurements were determined from fluorescence correlation spectroscopy (FCS).
The linear nerve binding polypeptide (NBP) NP41 was incorporated onto C′ dots using a PEG linker moiety.

sciatic nerve = test: In vivo optical imaging of sciatic nerve and adjacent muscle after iv injection of peptide-dye conjugates; conditions: nude mouse; for fluorescence signal at 30 min as percentage of post-injection/initial signal: 150 nmole iv
Protocol: FIGS. 13A-13E show in vivo time-dependent uptake from sciatic nerve and muscle post-iv injection of 17 AA cyclic peptide-dye conjugates using optical imaging. 17 AA cyclic peptide-dye conjugates (Cy5 labeled) were injected intravenously (400 nmole) into the tail veins of nude mouse prior to surgical exposure and imaging of sciatic nerves and adjacent muscle using a Zeiss Lumar stereomicroscope (0.8× objective) with fluorescence imaging capabilities. Pre- and serial post injection (p.i.) images (bright field, fluorescent) were acquired at 8 times points from 15 min to 240 min p.i. Bars indicate mean+/−standard deviation. N=5 per group. Each replicate is from one biological experiment, quantified with five independent fields of view. Region of interest (ROI) analysis was performed over nerve and muscle regions to assess time-dependent signal changes. FIGS. 13A-13E show the absolute and relative fluorescence signal (e.g., percentage of the initial fluorescence signal acquired at 15 min p.i.) of nerves (FIGS. 13A and […]) and adjacent muscle (FIGS. 13B and 13D), respectively.
FIGS. 14A and 14B show in vivo time-dependent uptake from sciatic nerve and muscle post-iv injection of 17 AA linear peptide-dye conjugates using optical imaging. 17 AA linear peptide-dye conjugates (Cy5 labeled) were injected intravenously (150 nmole) into the tail veins of nude mouse prior to surgical exposure and imaging of sciatic nerves and adjacent muscle using a Zeiss Lumar stereomicroscope (0.8× objective) with fluorescence imaging capabilities. Pre- and serial post injection (p.i.) images (bright field, fluorescent) were acquired at 6 times points (15 min-150 min) p.i. Bars indicate mean+/−standard deviation. N=5 per group.
FIGS. 16A-16E show in vivo time-dependent uptake from sciatic nerve and muscle post-iv injection of 17 AA cyclic peptide-dye conjugates using optical imaging. 17 AA cyclic peptide-dye conjugates (Cy5 labeled) were injected intravenously (150 nmole) into the tail veins of nude mouse prior to surgical exposure and imaging of sciatic nerves and adjacent muscle using a Zeiss Lumar stereomicroscope (0.8× objective) with fluorescence imaging capabilities. Pre- and serial post injection (p.i.) images (bright field, fluorescent) were acquired at 6 time points (15 min-150 min) p.i. Bars indicate mean+/−standard deviation. N=5 per group. Each replicate is from one biological experiment, quantified with five independent fields of view. Region of interest (ROI) analysis was performed over nerve and muscle regions to assess time-dependent signal changes. FIGS. 16A-16D show the absolute and relative fluorescence signal (percentage of the initial fluorescence signal acquired at 15 min p.i.) of nerves (FIGS. 16A and 16C) and adjacent muscle (FIGS. 16B and 16D), respectively.

| Compound | # of Cy5 per particles [1] | Hydrodynamic Diameter [1] [nm] | PCS Brightness [1] [kHz] | Quantum Enhancement [1] | # of NBP per particles [1] | fluorescence signal at 30 min as percentage of post-injection/initial signal (sciatic nerve; listed as 17 AA linear peptide-dye conjugates) | fluorescence signal at 30 min as percentage of post-injection/initial signal (sciatic nerve; listed as linear peptide) [%] | duration of detectable signal after administration (in words) (sciatic nerve; iv) | nerve-to-muscle or contrast ratios over time (in words) (sciatic nerve; iv, listed as linear peptide) | nerve-to-muscle or contrast ratios over time (in words) (sciatic nerve; iv, listed as linear peptide-dye conjugate) |
| --- | --- | --- | --- | --- | --- | --- | --- | --- | --- | --- |
| CCN1/C(=C/C=C/C=C/C2=[N+](CCCCCC(=O)O)c3ccc(S(=O)(=O)O)cc3C2(C)C)C(C)(C)c2cc(S(=O)(=O)[O-])ccc21 [Cy5] | 1 | 1.4 | 9.2 | 1 | – | – | – | – | – | – |
| Ac-SHSNTQTLAKAPEHTGC (also: Cy5 label, site not given here) [LinearNBP-Cy5] | 1 | 2.4 | 8.9 | 0.9 | 1 | about 15% | 10 | barely perceptible thereafter | does not demonstrate as high ratios | roughly equivalent over the first 30 min |
